Source: paper PMC10882719 (Frontiers in Neuroscience, 2024)
Like-named read-outs stand apart in the source and are kept apart here.

Key:
Assay type in all cases: cell-based
168 GPCRs [1] = molecular target: T1, 168 GPCRs (Homo sapiens, UniProt P28336); conditions: NMBR
T1 construct: host or cells: PathHunter cell lines

168 GPCRs [2] = molecular target: T2, 168 GPCRs (Homo sapiens, UniProt P32238); conditions: CCKAR
T2 construct: host or cells: PathHunter cell lines
T2 sequence (P32238 1-428): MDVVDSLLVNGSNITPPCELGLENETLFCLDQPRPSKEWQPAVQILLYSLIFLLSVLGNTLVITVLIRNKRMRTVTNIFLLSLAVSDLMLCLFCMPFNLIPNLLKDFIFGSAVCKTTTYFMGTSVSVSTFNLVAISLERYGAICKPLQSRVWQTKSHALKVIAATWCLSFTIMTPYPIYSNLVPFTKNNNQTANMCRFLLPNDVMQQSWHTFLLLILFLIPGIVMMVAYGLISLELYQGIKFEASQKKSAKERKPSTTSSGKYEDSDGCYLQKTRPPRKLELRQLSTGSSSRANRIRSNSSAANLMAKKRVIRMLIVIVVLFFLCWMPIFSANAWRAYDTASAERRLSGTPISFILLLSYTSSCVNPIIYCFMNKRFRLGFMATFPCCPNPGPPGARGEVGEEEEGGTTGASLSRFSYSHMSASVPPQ

168 GPCRs [3] = molecular target: T3, 168 GPCRs (Homo sapiens, UniProt P32246)
T3 construct: host or cells: PathHunter cell lines
T3 sequence (P32246 1-355): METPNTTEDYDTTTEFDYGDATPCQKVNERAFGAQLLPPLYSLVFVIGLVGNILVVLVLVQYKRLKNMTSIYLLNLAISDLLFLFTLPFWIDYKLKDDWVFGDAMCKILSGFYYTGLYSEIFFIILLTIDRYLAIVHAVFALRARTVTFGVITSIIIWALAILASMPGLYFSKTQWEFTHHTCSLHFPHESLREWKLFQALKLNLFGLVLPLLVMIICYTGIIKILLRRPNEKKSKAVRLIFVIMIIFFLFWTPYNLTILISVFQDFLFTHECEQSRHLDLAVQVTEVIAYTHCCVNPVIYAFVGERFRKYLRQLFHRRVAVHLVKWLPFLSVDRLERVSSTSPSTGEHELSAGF

168 GPCRs [4] = molecular target: T4, 168 GPCRs (Homo sapiens, UniProt Q03431); conditions: PTHR1
T4 construct: host or cells: PathHunter cell lines
T4 sequence (Q03431 27-593): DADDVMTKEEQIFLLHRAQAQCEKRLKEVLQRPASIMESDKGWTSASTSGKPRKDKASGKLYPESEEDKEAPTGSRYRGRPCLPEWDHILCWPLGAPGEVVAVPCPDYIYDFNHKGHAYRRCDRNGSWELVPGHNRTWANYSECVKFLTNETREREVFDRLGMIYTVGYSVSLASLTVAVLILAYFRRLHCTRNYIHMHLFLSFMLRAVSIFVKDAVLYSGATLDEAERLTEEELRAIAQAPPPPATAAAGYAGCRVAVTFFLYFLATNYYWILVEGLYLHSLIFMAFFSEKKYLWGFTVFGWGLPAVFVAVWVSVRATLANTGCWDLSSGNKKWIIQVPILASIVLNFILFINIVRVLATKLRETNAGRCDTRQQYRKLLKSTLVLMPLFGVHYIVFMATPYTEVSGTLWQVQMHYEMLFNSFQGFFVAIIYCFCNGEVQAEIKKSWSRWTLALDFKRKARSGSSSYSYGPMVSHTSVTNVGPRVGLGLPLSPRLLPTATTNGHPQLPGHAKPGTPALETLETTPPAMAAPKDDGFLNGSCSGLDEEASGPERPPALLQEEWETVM

168 GPCRs [5] = molecular target: T5, 168 GPCRs (Homo sapiens, UniProt Q9NSD7); conditions: RXFP3
T5 construct: host or cells: PathHunter cell lines
T5 sequence (Q9NSD7 1-469): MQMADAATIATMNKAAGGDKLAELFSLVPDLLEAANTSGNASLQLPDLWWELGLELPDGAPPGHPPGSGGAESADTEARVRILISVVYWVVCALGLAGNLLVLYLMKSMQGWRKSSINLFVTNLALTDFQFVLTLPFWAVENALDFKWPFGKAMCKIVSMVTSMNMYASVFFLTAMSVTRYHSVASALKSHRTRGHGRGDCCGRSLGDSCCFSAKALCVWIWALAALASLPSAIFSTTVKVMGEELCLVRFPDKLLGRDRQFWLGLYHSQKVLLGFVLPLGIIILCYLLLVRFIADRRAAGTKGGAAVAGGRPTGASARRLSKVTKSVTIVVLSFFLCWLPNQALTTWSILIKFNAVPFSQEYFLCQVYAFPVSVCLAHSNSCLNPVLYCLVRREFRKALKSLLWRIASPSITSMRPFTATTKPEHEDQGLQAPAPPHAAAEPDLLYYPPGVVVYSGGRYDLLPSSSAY

168 GPCRs [6] = molecular target: T6, 168 GPCRs (Homo sapiens, UniProt Q9Y5N1)
T6 construct: host or cells: PathHunter cell lines
T6 sequence (Q9Y5N1 whole entry): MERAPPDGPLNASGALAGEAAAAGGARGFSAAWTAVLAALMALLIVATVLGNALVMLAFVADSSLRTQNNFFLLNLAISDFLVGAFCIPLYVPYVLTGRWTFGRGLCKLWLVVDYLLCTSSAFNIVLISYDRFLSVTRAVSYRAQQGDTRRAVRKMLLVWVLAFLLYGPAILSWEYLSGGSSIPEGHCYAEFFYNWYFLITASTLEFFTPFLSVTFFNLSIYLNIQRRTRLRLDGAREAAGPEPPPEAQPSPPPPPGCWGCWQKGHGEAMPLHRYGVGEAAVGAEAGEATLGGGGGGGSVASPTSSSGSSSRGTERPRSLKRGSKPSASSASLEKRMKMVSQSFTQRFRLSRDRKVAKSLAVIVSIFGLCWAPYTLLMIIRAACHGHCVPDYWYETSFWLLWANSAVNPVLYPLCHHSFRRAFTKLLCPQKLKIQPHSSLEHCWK

T1 sequence (P28336 whole entry): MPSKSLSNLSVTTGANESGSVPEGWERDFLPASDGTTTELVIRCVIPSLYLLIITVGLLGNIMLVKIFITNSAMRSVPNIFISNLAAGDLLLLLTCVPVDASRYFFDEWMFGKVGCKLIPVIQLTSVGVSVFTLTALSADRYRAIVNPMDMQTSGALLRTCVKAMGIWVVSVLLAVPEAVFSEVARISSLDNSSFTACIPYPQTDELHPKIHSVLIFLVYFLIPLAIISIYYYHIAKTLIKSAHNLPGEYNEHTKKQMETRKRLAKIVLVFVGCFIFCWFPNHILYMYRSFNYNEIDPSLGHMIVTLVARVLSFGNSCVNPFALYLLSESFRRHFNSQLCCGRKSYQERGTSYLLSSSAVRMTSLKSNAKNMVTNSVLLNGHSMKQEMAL

CNC(C)C(=O)c1ccc2c(c1)OCO2 (stereo not drawn) [methylone]
% Agonist Activity (168 GPCRs [1]; 1 uM): 1.1% | % Antagonist Activity (168 GPCRs [1]; 1 uM): 10.3% | % Agonist Activity (168 GPCRs [1]; 10 uM): 1.2% | % Antagonist Activity (168 GPCRs [1]; 10 uM): 13.2% | % Agonist Activity (168 GPCRs [2]; 1 uM): 0.1% | % Antagonist Activity (168 GPCRs [2]; 1 uM): -4.3% | % Agonist Activity (168 GPCRs [2]; 10 uM): -0.3% | % Antagonist Activity (168 GPCRs [2]; 10 uM): -3.3% | % Agonist Activity (168 GPCRs [3]; CCR1, 1 uM): -2.6% | % Antagonist Activity (168 GPCRs [3]; CCR1, 1 uM): -8.1% | % Agonist Activity (168 GPCRs [3]; CCR1, 10 uM): 3.6% | % Antagonist Activity (168 GPCRs [3]; CCR1, 10 uM): -16.6% | % Agonist Activity (168 GPCRs [4]; Conc 1 uM): 0% | % Antagonist Activity (168 GPCRs [4]; Conc 1 uM): 2.2% | % Agonist Activity (168 GPCRs [4]; Conc 10 uM): 0.1% | % Antagonist Activity (168 GPCRs [4]; Conc 10 uM): -8.3% | % Agonist Activity (168 GPCRs [5]; Conc 1 uM): -7.6% | % Antagonist Activity (168 GPCRs [5]; Conc 1 uM): 23.1% | % Agonist Activity (168 GPCRs [5]; Conc 10 uM): -8.7% | % Antagonist Activity (168 GPCRs [5]; Conc 10 uM): 32.6% | % Agonist Activity (168 GPCRs [6]; HRH3, 1 uM): -3.4% | % Antagonist Activity (168 GPCRs [6]; HRH3, 1 uM): 9.5% | % Agonist Activity (168 GPCRs [6]; HRH3, 10 uM): -3.7% | % Antagonist Activity (168 GPCRs [6]; HRH3, 10 uM): 5.8%

CNC(C)Cc1ccc2c(c1)OCO2 (stereo not drawn) [MDMA, 3,4-Methylenedioxy methamphetamine, reference compound]
% Agonist Activity (168 GPCRs [1]; 1 uM): 0% | % Antagonist Activity (168 GPCRs [1]; 1 uM): -2.5% | % Agonist Activity (168 GPCRs [1]; 10 uM): 0.1% | % Antagonist Activity (168 GPCRs [1]; 10 uM): 4.3% | % Agonist Activity (168 GPCRs [2]; 1 uM): -0.1% | % Antagonist Activity (168 GPCRs [2]; 1 uM): -2.2% | % Agonist Activity (168 GPCRs [2]; 10 uM): 0.4% | % Antagonist Activity (168 GPCRs [2]; 10 uM): 0.7% | % Agonist Activity (168 GPCRs [3]; CCR1, 1 uM): 13.6% | % Antagonist Activity (168 GPCRs [3]; CCR1, 1 uM): -13% | % Agonist Activity (168 GPCRs [3]; CCR1, 10 uM): 6.2% | % Antagonist Activity (168 GPCRs [3]; CCR1, 10 uM): -7.6% | % Agonist Activity (168 GPCRs [4]; Conc 1 uM): 0% | % Antagonist Activity (168 GPCRs [4]; Conc 1 uM): -2.1% | % Agonist Activity (168 GPCRs [4]; Conc 10 uM): 0.1% | % Antagonist Activity (168 GPCRs [4]; Conc 10 uM): 7.7% | % Agonist Activity (168 GPCRs [5]; Conc 1 uM): -5.2% | % Antagonist Activity (168 GPCRs [5]; Conc 1 uM): 15.3% | % Agonist Activity (168 GPCRs [5]; Conc 10 uM): -0.7% | % Antagonist Activity (168 GPCRs [5]; Conc 10 uM): 19.1% | % Agonist Activity (168 GPCRs [6]; HRH3, 1 uM): -3.1% | % Antagonist Activity (168 GPCRs [6]; HRH3, 1 uM): 6.2% | % Agonist Activity (168 GPCRs [6]; HRH3, 10 uM): -2.6% | % Antagonist Activity (168 GPCRs [6]; HRH3, 10 uM): 22.6%
